Data set [1] has as its system human tumour cell lines (Jurkat, K-562, LoVo, MCF-7). The experiment in a line: Phototoxicity / dark toxicity in all tested human tumour cell lines, MTT test. The format is cell-based. The following applies: after UVA irradiation. The procedure: (§1) The evaluation of phototoxic activity was carried out in some human tumour cell lines: T-cell leukaemia (Jurkat), chronic myeloid leukaemia (K-562), colon adenocarcinoma (LoVo) and breast adenocarcinoma (MCF-7). Cellular survival experiments were carried out without irradiation to verify an eventual toxicity of photosensitizer in the dark, and then after two times of irradiation (10 and 15 min of UV-A, which correspond to 2.5 and 3.75 J/cm^2, respectively), using lamps which emit mainly at 365 nm. Cell survival was checked after 72 h of compound incubation or after 72 h from UVA irradiation by Mosmann's MTT reduction test (3-[4,5-dimethyltiazol-2yl] 2,5-diphenyl tetrazolium bromide), (T. Mossman, Rapid colorimetric assay for cellular growth and survival: application to proliferation and cytotoxicity assays, J. Immunol. Meths. 1983, 65, 55-63). […] In Table 2, there are GI50 values, that is the compound concentration required for 50% cell survival, for each cell line and for every time of irradiation.
On the technique in general: Tetrazolium dyes change colour on reduction, which living cells bring about.

Data set [2] has as its system breast adenocarcinoma (MCF-7). The experiment in a line: Phototoxicity after UV-A irradiation, MTT test. As to conditions: mean ± SEM. Format: cell-based, human. How it is done:
as §1

Data set [3] relates to chronic myeloid leukaemia (K-562). Briefly: Phototoxicity after UV-A irradiation, MTT test. The format is cell-based, human. The following applies: mean ± SEM. How it is done:
as §1

Data set [4] concerns colon adenocarcinoma (LoVo). Briefly: Phototoxicity after UV-A irradiation, MTT test. The following applies: mean ± SEM. Format: cell-based, human. How it is done:
as §1

The test system of data set [5] is T-cell leukaemia (Jurkat). The experiment in a line: Phototoxicity after UV-A irradiation, MTT test. The following applies: mean ± SEM. Format: cell-based, human. The procedure: as §1
The next data set has as its system plasmid (pBR322) DNA. Briefly: Plasmid strand break / DNA photodamage experiments (Fpg, Endo III). Format: biochemical. The following applies: pBR322, irradiated, Fpg and Endo III. How it is done:
After having assessed a weak affinity toward this macromolecule in the dark by such spectroscopic techniques as linear dichroism and fluorimetric titrations, some plasmid (pBR322) strand break experiments were carried out to check an eventual DNA photodamage by compounds. The formation of open circular or linear DNA from a supercoiled plasmid DNA was monitored by the separation of the three forms using agarose gel horizontal electrophoresis. Beside the formation of frank strand breaks, oxidative damages to purine and pyrimidine bases were also evaluated, incubating the irradiated mixture with the repair enzyme Fpg (Formamidopyrimidine glycosylase) and Endo III (Endonuclase III), respectively. (B. Epe, M. Pflaum, S. Boiteux, DNA damage induced by photosensitizers in cellular and cell-free systems, Mut. Res. 1993, 299, 135-145; T. A. Ciulla, J. R. Van Camp, E. Rosenfeld, I. Kochevar, Photosensitization of single-strand breaks in pBR322 DNA by Rose Bengal, Photochem. Photobiol. 1989, 49, 293-298).

Another data set concerns Jurkat cells. Briefly: Mitochondrial membrane potential by JC-1 probe after irradiation. Format: cell-based, human. As to conditions: JC-1, 2 h from irradiation, with respect to control. The procedure: Other two tests were performed to have more information about the mechanism of action and to evaluate which organelles were involved in this process. […] (X. Wang, The expanding role of mitochondria in apoptosis, Gen. Develop. 2001, 15, 2922-2933). An eventual mitochondrial involvement in apoptosis induction was evaluated by such a parameter of mitochondrial dysfunction as the loss of mitochondrial membrane potential. Mitochondrial membrane potential of Jurkat cells was monitored by JC-1 probe after their irradiation in the presence of 9j, 9k and 9m (S. Salvioli, A. Ardizzoni, C. Franceschi, A. Cossarizza, JC-1, but not DiOC6(3) or rhodamine 123, is a reliable fluorescent probe to assess […] changes in intact cells: implications for studies on mitochondrial functionality during apoptosis, FEBS Lett. 1997, 411, 77-82).

The mark [6] stands for this setting: Homo sapiens, light or radiation study, 72 h, UV-A 2.5 J/cm^2, 72 h after irradiation.
The mark [7] stands for this setting: Homo sapiens, light or radiation study, 72 h, UV-A 3.75 J/cm^2, 72 h after irradiation.
[8] abbreviates: UV-A 2.5 J/cm^2, 72 h after irradiation.
The mark [9] stands for this setting: UV-A 3.75 J/cm^2, 72 h after irradiation.

We go through 2 compounds from patent US20120129884A1, “PHOTOCHEMOTHERAPEUTIC HETEROCYCLIC AGENTS HAVING ANTIPROLIFERATIVE AND ANTINEOPLASTIC ACTIVITY” (UNIVERSITA DEGLI STUDI DI PADOVA, priority 2009, published 2012).

A word on the GI50: it is the concentration giving 50% growth inhibition. Read a low GI50 as greater sensitivity of the cells.

As for `CCOC(=O)c1cc2c(n1Cc1ccccc1)-c1[nH]c(=O)c(S(=O)(=O)c3ccccc3)cc1CC2` [Compound 9k, Ethyl 1-benzyl-7-(phenylsulfonyl)-1,4,5,9-tetrahydro-8H-pyrrolo[3,2-h]quinolin-8-one-2-carboxylate], in data set [1], the “GI50 (phototoxic)” value is recorded as “submicromolar”. Besides, the concentration for 50% growth inhibition (GI50) in data set [2] (Homo sapiens, MCF7, light or radiation study, 72 h, MCF-7, UV-A 2.5 J/cm^2, 72 h after irradiation) was determined as 900 ± 100 nM; in data set [2] (Homo sapiens, MCF7, light or radiation study, 72 h, MCF-7, UV-A 3.75 J/cm^2, 72 h after irradiation) it was 800 ± 100 nM; in data set [3] (Homo sapiens, K562, light or radiation study, 72 h, K-562, UV-A 2.5 J/cm^2, 72 h after irradiation), 900 ± 100 nM; in data set [3] (Homo sapiens, K562, light or radiation study, 72 h, K-562, UV-A 3.75 J/cm^2, 72 h after irradiation), 600 ± 100 nM; in data set [4] (setting [6]) it was 900 ± 100 nM; in data set [4] (setting [7]), 800 ± 100 nM. Besides, the GI50 in data set [5] (setting [6]) came to 800 ± 100 nM; in data set [5] (setting [7]), 600 ± 100 nM. Besides, the “DNA photodamage (photocleavage, oxidative damages in DNA bases)” value with plasmid (pBR322) DNA was “do not induce DNA photodamage”. In the data set on Jurkat cells, the “cell percentage with collapsed mitochondrial potential” value is “increase of cell percentage with collapsed mitochondrial potential”.
Consider `CCOC(=O)c1cc2c(n1Cc1ccc(OC)cc1)-c1[nH]c(=O)c(S(=O)(=O)c3ccccc3)cc1CC2` [Compound 9m, Ethyl 1-(p-methoxy-benzyl)-7-(phenylsulfonyl)-1,4,5,9-tetrahydro-8H-pyrrolo[3,24] quinolin-8-one-2-carboxylate], for which the “GI50 (phototoxic)” value in data set [1] was “submicromolar”. The GI50 in data set [2] (MCF-7, UV-A 2.5 J/cm^2, 72 h after irradiation) stood at 1600 ± 200 nM; in data set [2] (MCF-7, UV-A 3.75 J/cm^2, 72 h after irradiation), 1400 ± 200 nM; in data set [3] (K-562, UV-A 2.5 J/cm^2, 72 h after irradiation) it was 1000 ± 100 nM; in data set [3] (K-562, UV-A 3.75 J/cm^2, 72 h after irradiation), 900 ± 100 nM; in data set [4] (setting [8]), 1100 ± 100 nM; in data set [4] (setting [9]), 1000 ± 200 nM. Moreover, the figures for the GI50 in data set [5] (setting [8]) and in data set [5] (setting [9]) were 800 ± 100 nM and 700 ± 100 nM, respectively. Moreover, the “DNA photodamage (photocleavage, oxidative damages in DNA bases)” value in the data set on plasmid (pBR322) DNA is recorded as “do not induce DNA photodamage”. Moreover, in the data set on Jurkat cells, the “cell percentage with collapsed mitochondrial potential” value is reported as “increase of cell percentage with collapsed mitochondrial potential”.
